Experimental data published in patent US20250255847A1, “[…]s: Novel Drugs for Triple Negative Breast Cancer” (SIMMARON RSEARCH INC, priority 2024, published 2025).

Assays:
[1] = system: RANTES; experiment: RANTES real-time PCR and ELISA in MDA-MB-468 cells; assay type: cell-based, human; conditions: 20 nM; for gene expression of RANTES (real-time PCR): 5 hrs post-treatment; for protein expression of RANTES (ELISA): 48 hrs post treatment
Method: FIG. 10 illustrates an embodiment of the present invention and illustrates SIM-1 and SIM-2 inhibit expressions of IL6, RANTES, and other STAT3-dependent tumor promoting genes and proteins. (A) A gene array of STAT3 dependent 66 genes (listed in Table 1) was performed in mRNA samples of MDA-MB-468 cells. Realtime PCR plate coated with 66 primer sets of STAT3-dependent genes was run for four conditions including control, EGF (25 ng/mL), EGF+SIM-1 (10 nM) and EGF+SIM-2 (10 nM). The resultant Ct value was normalized with four different housekeeping genes, and then summarized with a heatmap analyses drawn in Morpheus server of Broad Institute. […] (C) The cloning of STAT3 response element of IL6 promoter upstream of GFP reporter was performed by GeneCopoea genome editing service (Rockville, MD). The bit score map and sequence of consensus STAT3 response element or SEQ ID NO: 2 was shown below. EGFP reporter assay was performed in EGF-induced (20 ng/mL) MDA-MB-468 after treatments of increasing doses of (D) SIM-1 and (E) SIM-2 for 5 hrs. Briefly, MDA-MB-468 cells were transfected with the plasmid for 24 hrs using Lipofectamine transfection strategy followed by the treatment with EGF (20 ng/mL) alone and together with increasing doses SIM-1 and SIM-2 for additional 5 hrs. After that live cells were recorded at Ex:Em=485/535 nm wavelength for GFP activity. (F) The scrambled STAT3 response element in IL6 promoter or SEQ ID NO: 3 was also synthesized partnering with GeneCopoea. One-way ANOVA (treatment as effector) was adopted to test the significance between groups at **p<0.01, #p<0.005, and *p<0.05. (G) The GFP reporter activity was measured where the scrambled gene was cloned upstream of eGFP reporter. Results are mean±SD of three different experiments Ns=no significance. (H) Realtime PCR analyses of IL6 was performed in MDA-MB-468 cells maintained under control, EGF (25 ng/mL), EGF+SIM-1(20 nM), and EGF+SIM-2 (20 nM) conditions for 5 hrs. (I) ELISA analysis of IL6 was performed after 48 hrs in MDA-MB-468 cells kept under similar treatment conditions. (J) Realtime PCR (5 hrs post-treatment) and (K) ELISA analyses of RANTES (48 hrs post treatment) were performed under similar condition. Results are mean±SD of three different experiments. One-way ANOVA (treatment as effector) was adopted to test the significance between groups at ***p<0.001, **p<0.01, and *p<0.05.
ELISA assay. IL6 (BD OptEIA™; Cat #555220) and RANTES (Thermo; Cat #EHRNTS) ELISA was performed as per manufacturer's protocol. […]
Once the transcriptional regulation of STAT3-dependent genes was confirmed, the quantification of IL6 was performed. […]

[2] = system: TM00096 human TNBC tumor; experiment: Tumor growth in patient-derived xenograft (PDX) mouse model of TNBC; assay type: in vivo; conditions: for tumor growth by infrared 2DG image analysis: 2 mg/Kg Bwt i.p., end of 4th week; for final tumor volume (mean±SD): after 4 weeks (2 weeks dosing 2 mg/Kg Bwt i.p. alternate days + 2 weeks follow-up), vehicle 949.15±769.15; for initial tumor volume (mean±SD): day 0, 2 mg/Kg Bwt i.p. every alternate day for two weeks
Method: FIG. 12 illustrates an embodiment of the present invention and illustrates SIM-1 and SIM-2 arrest the growth of human TNBC tumor in patient-derived xenograft mouse model. TM00096 tumor (origin of invasive ductal carcinoma isolated from a person) was seeded in the flank of 6-week-old female SCID mice by Jackson Laboratory and then shipped to our research facility. Once the tumor reached ˜4 mm in size (˜30 mm^3 in volume), n=6 mice/group were treated by vehicle (5% DMSO), SIM-1 and SIM-2 (2 mg/Kg Bwt mixed with 5% DMSO) via i.p. for 2 weeks in every alternate day. The tumor size was monitored accordingly during the treatment and two more weeks after the last dose to evaluate the recurrence. After 4 weeks, Mice received IRDye 800-tagged 2DG (2-deoxy glucose) probe via tail vein and then imaged in infrared scanner. […] Red spots enclosed in a squares are tumor tissue. Other red spots are non-specific organs with high metabolic activity. (B) Tumor size was measured every alternate day for 4 weeks by a digital caliper and then the volume was calculated using the formula 0.5*Length*Width^2. […] (D) Body weight was recorded during the course of the study to monitor the adverse metabolic outcome due to the drug administration. (E) The heart rate was monitored at 0-, 7-, 14-, and 28-days post SIM-1 and SIM-2 treatments by MouseStat Jr console (Kent Scientific) as per the manufacturer's instruction. (F) At the end of the study, the gross motor performance was recorded for n=6 (i) vehicle, (ii) SIM-1-, and (iii) SIM-2-treated mice. […] Gross movement parameters including (G) the total distance traveled, and (H) the average speed were monitored and plotted by scatter histograms (n=6/group; not significant as shown by one-way ANOVA).
Acquisition, housing, and treatment of PDX mice. Grade 3 invasive ductal carcinoma tumor fragments were harvested from a patient, genotyped for ER-, PR-, and Her2low, and were engrafted in the flank region of 6-to-7-week-old female NOD.Cg-Prkdcscid Il2rgtm1Wjl/SzJ mouse. These tumor-bearing mice were commercially purchased from Jackson Laboratories (Cat #TM00096). Since these mice are severely immunocompromised, special housing was required in a barrier room with restricted air flow and sterile foods. All animal studies were performed under an Institutional Animal Care and Use Committee-approved protocol (Study ID #). […] For the treatment, 2 mg/Kg bwt doses of both SIM-1 and SIM-2 were dissolved in 5% DMSO and then administered intraperitoneally every alternate day for two weeks and followed up for additional two weeks. To ensure safety and toxicity, vital health parameters such as body weight, heart rate, and body temperature were recorded every alternate day for one month. Tumor growth was assessed every alternate day for one month by a digital caliper. Tumor volume was estimated by the formula 0.5× (length×width2). The treatment started once the tumor reached 4 mm in size with an approximate volume of ˜30 mm^3. Mice received drugs for two weeks and left untreated for an additional two weeks to monitor the effect of drug withdrawal on the tumor size. On the penultimate day of the study, mice were injected with 100 μL of […] 2DG dye. The next day, mice were euthanized and then imaged in a Li—CoR infrared scanner to measure tumor size. After that, tumor tissues were harvested from the flank, washed in cold PBS, again imaged with a scalebar, and finally preserved in a −80° C. freezer for subsequent analyses such as genetic and immunoassays.
This example provides a representative experiment of the present invention that studies the effects of both SIM-1 and SIM-2 on the regression and growth arrest of tumors in vivo in the PDX mouse model of TNBC. […]

SMILES | gene expression of RANTES (real-time PCR) [1] | protein expression of RANTES (ELISA) [1] | tumor growth by infrared 2DG image analysis [2] | final tumor volume (mean±SD) [2] | initial tumor volume (mean±SD) [2]
O=C(O)CCC(=O)NCc1csc2ccc(Cl)cc12 [SIM-1, 4-[(5-chloro-1-benzothiophen-3-yl)methylamino]-4-oxobutanoic acid] | significantly downregulated | significantly downregulated | significantly arrested the growth | 126.69±29.98 mm^3 | 37.65±15.41 mm^3
CCOC(=O)c1c(NC(C)=O)sc2c(Cl)c(/C=N/O)ccc12 [SIM-2, ethyl 2-acetamido-7-chloro-6-(hydroxyiminomethyl)-1-benzothiophene-3-carboxylate] | significantly downregulated | significantly downregulated | significantly arrested the growth | 134.09±41.77 mm^3 | 37.43±7.07 mm^3
